From article PMC5584760, “Rational design of drug-like compounds targeting Mycobacterium marinum MelF protein” (PLoS ONE, 2017)
≈ marks a conversion by molar mass, not a printed value. Where “and” joins values, the source holds several entries; their conditions need not be identical. Equal entries are not always repeated. Where two headings read alike, the source gives them in different places.

What was measured:
M. marinum [1] = test: MIC by resazurin microtiter plate assay (REMA); type: cell-based, M. marinum strain M; conditions: 48 h, ~5 X 10^6/well, median (range) of three independent experiments; for MIC: Mycobacterium marinum
M. tuberculosis [2] = test: MIC by resazurin microtiter plate assay (REMA); type: cell-based, M. tuberculosis H37Rv; conditions: 96 h, ~5 X 10^6/well, median (range) of three independent experiments; for MIC: Mycobacterium tuberculosis
M. marinum [3] = test: MBC by CFU assay; type: cell-based, M. marinum strain M; conditions: for MBC: Mycobacterium marinum; for MBC / MBC, M. marinum: CFU assay, 48 h, median (range) of three independent experiments; for MBC/MIC, M. marinum: ratio, bactericidal when ≤ 4
M. tuberculosis [4] = test: MBC by CFU assay; type: cell-based, M. tuberculosis H37Rv; conditions: for MBC: Mycobacterium tuberculosis; for MBC / MBC, M. tuberculosis: CFU assay, 96 h, median (range) of three independent experiments; for MBC/MIC, M. tuberculosis: ratio, bactericidal when ≤ 4
purified MelF = purified MelF (Mycobacterium marinum, UniProt Q5SDQ6); test: Ki determination by Dixon plots; type: biochemical; conditions: for Ki: Dixon plots, substrate 50, 100 and 150 μM; for type of inhibition (Dixon's plot): intersection of Dixon's plots
purified MelF, sequence (Q5SDQ6 entry or part of it): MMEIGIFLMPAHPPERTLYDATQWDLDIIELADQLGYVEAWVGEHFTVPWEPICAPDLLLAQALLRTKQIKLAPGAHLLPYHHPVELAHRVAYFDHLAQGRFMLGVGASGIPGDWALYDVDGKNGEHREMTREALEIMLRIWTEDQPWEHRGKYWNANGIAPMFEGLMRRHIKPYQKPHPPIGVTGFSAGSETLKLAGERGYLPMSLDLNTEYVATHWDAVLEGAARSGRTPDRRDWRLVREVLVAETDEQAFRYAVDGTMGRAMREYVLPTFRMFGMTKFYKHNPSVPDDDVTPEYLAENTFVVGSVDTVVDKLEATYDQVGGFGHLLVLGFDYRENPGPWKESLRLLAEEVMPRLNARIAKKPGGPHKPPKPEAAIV
Procedure: The enzyme activity was assayed by monitoring a decrease in absorption of NADH (nicotinamide adenine dinucleotide) at 340 nm (ε = 6.22 X 10^3 M^-1cm^-1) in 50 mM Tris-Cl, pH 7.4 at 25°C. The steady state kinetic measurements were performed in a 1-cm path length cuvette in a final volume of 1mL according to the method of Kendrew et al. with slight modifications. 300μM of NADH and 80μM of FAD (flavin adenine dinucleotide) were added and the assay was initiated with the addition of 100 μg (6.09× 10^−10 mole) of enzyme present in WCL/purified MelF. The reaction was followed at 25°C for 5 min. The FAD was kept in the dark to prevent photo-reduction. The specific activity of the enzyme was calculated as Units/mg = ΔA340/min/6.22×mg enzyme/ mL reaction mixture Where ΔA340 represents a change in absorbance of NADH at 340 nm.
Ki values were calculated using Dixon plots, where inverse of Vmax values were plotted against the inhibitor concentration using different substrate concentrations.

M. tuberculosis [5] = test: Resazurin drugs combination microtiter assay (RIF/INH + inhibitor); type: cell-based, M. tuberculosis H37Rv; conditions: for FICI in combination with INH, M. tuberculosis: synergistic inhibitory effect
HeLa cells = test: MTT cytotoxicity assay; type: cell-based, Human; conditions: 20 h
Procedure: The MTT (3-(4, 5-dimethyl thiazol-2yl)-2, 5-diphenyl tetrazolium bromide) assay was employed to assess the cytotoxicity of the inhibitors. HeLa cells (Human cervical epithelial cells) were plated at a concentration of 1×10^5/well in 100 μL of minimal essential medium (MEM) supplemented with 10% heat-inactivated fetal bovine serum (FBS) in 96-well plates. After overnight incubation at 37°C in 5% CO2 incubator, media was removed and the inhibitors were added in 100 μL of MEM + 10% heat-inactivated FBS at 1X and 5 X MIC concentrations. After incubation for 20 h, the cells were washed thrice with warm MEM (without FBS) and 200 μL of MTT (5mg/mL) was added. The plates were further incubated for 4 h, followed by the addition of 50 μL of DMSO (solubilizing reagent) per well, mixed thoroughly by a micropipette and left for 45 s. Presence of viable cells was visualized by the development of purple color due to formation of formazan crystals. The OD values were read at 595 nm using DMSO as a blank. A standard graph was plotted between the concentration of inhibitors and the relative cell viability.
Cell viability (%) = Test OD /Control ODX 100

M. tuberculosis [6] = test: MBC of combinations of drugs (RIF/INH) and inhibitors; type: cell-based, M. tuberculosis H37Rv; conditions: for bactericidal effect in combination with RIF against M. tuberculosis: compared with RIF alone
M. marinum [7] = test: Resazurin drugs combination microtiter assay (RIF/INH + inhibitor); type: cell-based, M. marinum strain M; conditions: for FICI in combination with INH, M. marinum: synergistic inhibitory effect
[8] = at both 1X and 5X MIC concentrations

Molecule | MIC (M. marinum [1]) | MIC (M. tuberculosis [2]) | MBC (M. marinum [3]) | MBC/MIC, M. marinum (M. marinum [3]) | MBC (M. tuberculosis [4]) | MBC/MIC, M. tuberculosis (M. tuberculosis [4]) | Ki (purified MelF; Ki) | type of inhibition (Dixon's plot) (purified MelF) | MIC, M. marinum (M. marinum [1]) | MIC, M. tuberculosis (M. tuberculosis [2]) | FICI in combination with INH, M. tuberculosis (M. tuberculosis [5]) | cytotoxicity in HeLa cells (HeLa cells; [8]) | MBC, M. marinum (M. marinum [3]) | MBC, M. tuberculosis (M. tuberculosis [4]) | Ki (purified MelF; read-out: Ki) | further results
CO[C@H]1/C=C/O[C@@]2(C)Oc3c(C)c(O)c4c(O)c(c(/C=N/N5CCN(C)CC5)c(O)c4c3C2=O)NC(=O)/C(C)=C\C=C\[C@H](C)[C@H](O)[C@@H](C)[C@@H](O)[C@@H](C)[C@H](OC(C)=O)[C@@H]1C [RIF, Rifampicin, reference compound] | 0.475 µM (≈ 0.391 µg/mL) | 0.048 µM (≈ 0.0395 µg/mL) | 0.95 µM (≈ 0.782 µg/mL) | 2 | 0.095 µM (≈ 0.0782 µg/mL) | 2 |  |  |  |  |  |  |  |  |  | 
CCC(C)c1ccc(OCCSc2nc3ccccc3[nH]2)cc1 (centres unmarked) [compound 6492687, 2-{[2-(4-sec-butylphenoxy)ethyl]thio}-1H-benzimidazole] | 9.57 to 19.4 µM (≈ 3.12 to 6.33 µg/mL) | 32.7 to 38.8 µM (≈ 10.7 to 12.7 µg/mL) | 38.3 µM (≈ 12.5 µg/mL) | 4 | 38.3 µM (≈ 12.5 µg/mL) | 1 | 25 µM and 24 µM | competitive inhibition | 9.57 (9.57) μM | 38.28 (19.14–38.28) μM | 0.257–0.263 | cytotoxic |  |  |  | 
CC(C)COc1ccc(-c2nn(-c3ccccc3)cc2CO)cc1 [compound 5175552, [3-(4-isobutoxyphenyl)-1-phenyl-1H-pyrazol-4-yl]methanol] | 3.38 µM (≈ 1.09 µg/mL) | 13.5 µM (≈ 4.36 µg/mL) | 6.76 µM (≈ 2.18 µg/mL) | 2 | 27 µM (≈ 8.71 µg/mL) | 2 | 68 µM | competitive inhibition | 3.38 (3.38) μM | 13.51 (13.51–27.02) μM | 0.257–0.263 | not cytotoxic | 6.76 (6.76) μM | 27.02 (13.51–27.02) μM |  | combined effect with INH against M. tuberculosis (M. tuberculosis [5]; in combination with INH): synergistic inhibitory effect; MBC/MIC ratio in combination with RIF, M. tuberculosis (M. tuberculosis [6]): 1; bactericidal effect in combination with RIF against M. tuberculosis (M. tuberculosis [6]): enhanced bactericidal effect
c1ccc(CC(Cc2nc3ccccc3[nH]2)c2nc3ccccc3[nH]2)cc1 (centres unmarked) [compound 5255825, 2,2'-(3-phenyl-1,2-propanediyl)bis-1H-benzimidazole] | 9.57 to 19.4 µM (≈ 3.37 to 6.83 µg/mL) | 32.7 to 38.8 µM (≈ 11.5 to 13.7 µg/mL) | 35.5 µM (≈ 12.5 µg/mL) | 2 | 35.5 µM (≈ 12.5 µg/mL) | 1 | 4 µM | competitive inhibition | 17.74 (8.87–17.74) μM | 35.47 (17.74–35.47) μM | 0.257–0.263 | cytotoxic |  |  |  | FICI in combination with INH, M. marinum (M. marinum [7]): 0.276
2-{[(2-methyl-6-phenyl-4-pyrimidinyl)thio]methyl}-1H-benzimidazole [compound 6513745] |  |  |  | 2 |  | 1 |  | noncompetitive inhibition |  | 32.68–38.77 μM and 38.77 (19.39–38.77) μM |  | not cytotoxic | 38.77 (19.39–38.77) μM | 38.77 (19.39–38.77) μM | 18 µM | combined effect with INH against M. marinum (M. marinum [7]; in combination with INH): synergistic inhibitory effect; FICI in combination with INH, M. marinum (M. marinum [7]): 0.276
N~1~,N~1~-diethyl-N~4~-{6-methoxy-2-[2-(4-nitrophenyl)vinyl]-4-quinolinyl}-1,4-pentanediamine [compound 5255829] |  |  |  | 2 |  | 1 |  | competitive inhibition | 9.57–19.39 μM and 16.30 (8.15–16.30) μM | 32.68–38.77 μM and 32.68 (32.68) μM |  | not cytotoxic | 32.68 (32.68) μM | 32.68 (32.68) μM | 9 µM | 
2,2'-[3-(3-methoxyphenyl)-1,2-propanediyl]bis-1H-benzimidazole [compound 9125618] |  |  |  | 2 |  | 1 |  | noncompetitive inhibition | 9.57–19.39 μM and 18.80 (9.40–18.80) μM | 32.68–38.77 μM and 37.61 (18.80–37.61) μM |  |  | 37.61 (37.61) μM | 37.61 (37.61) μM | 24 µM and 25 µM | bactericidal effect in combination with RIF against M. tuberculosis (M. tuberculosis [6]): enhanced bactericidal effect; cytotoxicity in HeLa cells (HeLa cells; 5X MIC concentration): ~ 18%
NNC(=O)c1ccncc1 [INH, Isoniazid, reference compound] | 4.53 µM (≈ 0.621 µg/mL) | 2.27 µM (≈ 0.311 µg/mL) | 4.53 µM (≈ 0.621 µg/mL) | 1 | 2.27 µM (≈ 0.311 µg/mL) | 1 |  |  |  |  |  |  |  |  |  | 
